According to patent publication US8492371B2, “Compounds as cannabinoid receptor ligands” (priority 2009, dated 2013):
Like-named read-outs stand apart in the source and are kept apart here.

How the values were obtained:
human CB2 receptors = biological target: T1, human CB2 receptors (Homo sapiens, UniProt P34972); experiment: Human CB2 radioligand binding assay ([3H]CP-55,940 competition)
T1 construct: expressed in transfected cells; host or cells: HEK293
Procedure: The CB1 and CB2 radioligand binding assays described herein are utilized to determine the selectivity of compounds of the present invention for binding to CB2 relative to CB1 receptors.
(§1) HEK293 cells stably expressing human CB2 receptors were grown until a confluent monolayer was formed. Briefly, the cells were harvested and homogenized in TE buffer (50 mM Tris-HCl, 1 mM MgCl2, and 1 mM EDTA) using a polytron for 2×10 second bursts in the presence of protease inhibitors, followed by centrifugation at 45,000×g for 20 minutes. The final membrane pellet was re-homogenized in storage buffer (50 mM Tris-HCl, 1 mM MgCl2, and 1 mM EDTA and 10% sucrose) and frozen at −78° C. until used. Saturation binding reactions were initiated by the addition of membrane preparation (protein concentration of 5 μg/well for human CB2) into wells of a deep well plate containing ([^3H]CP-55,940 (120 Ci/mmol, a nonselective CB agonist commercially available from Tocris) in assay buffer (50 mM Tris, 2.5 mM EDTA, 5 mM MgCl2, and 0.5 mg/mL fatty acid free BSA, pH 7.4). After 90 min incubation at 30° C., binding reaction was terminated by the addition of 300 μL/well of cold assay buffer followed by rapid vacuum filtration through a UniFilter-96 GF/C filter plates (pre-soaked in 1 mg/mL BSA for 2 hours). The bound activity was counted in a TopCount using Microscint-20. Saturation experiments were conducted with twelve concentrations of [^3H]CP-55,940 ranging from 0.01 to 8 nM. Competition experiments were conducted with 0.5 nM [^3H]CP-55,940 and five concentrations of displacing ligands selected from the range of 0.01 nM to 10 μM. The addition of 10 μM unlabeled CP-55,940 (Tocris, Ellisville, Mo.) was used to assess nonspecific binding.

rat CB2 receptors = biological target: T2, rat CB2 receptors (Rattus norvegicus, UniProt Q9QZN9); experiment: Rat CB2 radioligand binding assay ([3H]CP-55,940 competition)
T2 construct: expressed in transfected cells; host or cells: HEK293
T2 sequence (Q9QZN9 1-360): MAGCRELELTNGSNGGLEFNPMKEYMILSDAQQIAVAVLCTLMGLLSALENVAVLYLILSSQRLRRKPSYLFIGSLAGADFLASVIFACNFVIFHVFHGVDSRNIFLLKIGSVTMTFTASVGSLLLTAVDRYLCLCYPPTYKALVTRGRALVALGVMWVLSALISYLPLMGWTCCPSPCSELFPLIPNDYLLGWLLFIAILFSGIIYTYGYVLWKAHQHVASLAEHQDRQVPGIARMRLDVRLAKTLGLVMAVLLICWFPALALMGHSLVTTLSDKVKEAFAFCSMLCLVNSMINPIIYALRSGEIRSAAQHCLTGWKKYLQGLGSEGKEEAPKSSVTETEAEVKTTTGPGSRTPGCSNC
Procedure: as §1, with “expressing rat” for “expressing human”, “of 20” for “of 5”, “for rat” for “for human”, “containing [^3H]CP-55,940” for “containing ([^3H]CP-55,940”, “After 45” for “After 90”, “[…]” for “10 μM.”

[1] = HEK293 membranes, 0.5 nM [3H]CP-55,940, read-out: human CB2 Ki

T1 sequence (P34972 whole entry): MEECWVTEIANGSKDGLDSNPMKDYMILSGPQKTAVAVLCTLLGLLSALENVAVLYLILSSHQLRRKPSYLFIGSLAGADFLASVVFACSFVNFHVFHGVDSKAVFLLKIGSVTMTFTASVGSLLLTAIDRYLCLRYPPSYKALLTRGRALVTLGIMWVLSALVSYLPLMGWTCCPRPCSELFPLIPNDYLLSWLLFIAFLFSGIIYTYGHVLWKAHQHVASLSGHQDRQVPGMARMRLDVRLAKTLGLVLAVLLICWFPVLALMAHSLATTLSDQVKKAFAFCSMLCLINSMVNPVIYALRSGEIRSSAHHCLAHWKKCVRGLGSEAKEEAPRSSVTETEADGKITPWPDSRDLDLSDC

Row | Compound | Ki (human CB2 receptors) | Ki (rat CB2 receptors) | Ki (human CB2 receptors; [1])
1 | COc1ccc(C(F)(F)F)cc1C(=O)/N=c1\cc(C(C)(C)C)n(C)n1CC1CC[C@@H](C)O1 (mixture of isomers) [Example 64, N-((3E)-5-tert-butyl-1-methyl-2-{[(5R)-5-methyltetrahydrofuran-2-yl]methyl}-1,2-dihydro-3H-pyrazol-3-ylidene)-2-methoxy-5-(trifluoromethyl)benzamide] | 30 nM | 6.2 nM | 
2 | COc1ccc(Cl)cc1C(=O)/N=c1\sc(C2(C(F)(F)F)CC2)nn1C[C@H]1CCCO1 [Example 1, 5-chloro-2-methoxy-N-[(2Z)-3-[(2R)-tetrahydrofuran-2-ylmethyl]-5-[1-(trifluoromethyl)cyclopropyl]-1,3,4-thiadiazol-2(3H)-ylidene]benzamide] | 51 nM | 2.9 nM | 
3 | COc1ccc(Cl)cc1C(=O)/N=c1\sc(C2CC2)nn1CC1CCCO1 (centres unmarked) [Example 2, 5-chloro-N-[(2Z)-5-cyclopropyl-3-(tetrahydrofuran-2-ylmethyl)-1,3,4-thiadiazol-2(3 H)-ylidene]-2-methoxybenzamide] | 17 nM | 12 nM | 
4 | CCOc1ccccc1C(=O)/N=c1\sc(C2CC2)nn1CC1CCCO1 (centres unmarked) [Example 3, N-[(2Z)-5-cyclopropyl-3-(tetrahydrofuran-2-ylmethyl)-1,3,4-thiadiazol-2(3H)-ylidene]-2-ethoxybenzamide] |  | 71 nM | 114 nM
5 | COc1ccc(Cl)cc1C(=O)/N=c1\sc(C(C)(C)C)nn1C[C@H]1CCCO1 [Example 4, N-[(2Z)-5-tert-butyl-3-[(2R)-tetrahydrofuran-2-ylmethyl]-1,3,4-thiadiazol-2(3 H)-ylidene]-5-chloro-2-methoxybenzamide] | 6.9 nM | 1.2 nM | 
6 | COc1ccc(Cl)cc1C(=O)/N=c1\sc(C2(C)CC2)nn1C[C@H]1CCCO1 [Example 5, 5-chloro-2-methoxy-N-[(2Z)-5-(1-methylcyclopropyl)-3-[(2R)-tetrahydrofuran-2-ylmethyl]-1,3,4-thiadiazol-2(3H)-ylidene]benzamide] | 9.1 nM | 0.9 nM | 
7 | C#CC(C)(C)c1nn(C[C@H]2CCCO2)/c(=N/C(=O)c2cc(Cl)ccc2OC)s1 [Example 6, 5-chloro-N-[(2Z)-5-(1,1-dimethylprop-2-ynyl)-3-[(2R)-tetrahydrofuran-2-ylmethyl]-1,3,4-thiadiazol-2(3H)-ylidene]-2-methoxybenzamide] | 20 nM | 3.3 nM | 
8 | COc1ccc(Cl)cc1C(=O)/N=c1\sc(C2(C)CC(F)(F)C2(F)F)nn1C[C@H]1CCCO1 (some centres unmarked) [Example 7, 5-chloro-2-methoxy-N-[(2Z)-5-(2,2,3,3-tetrafluoro-1-methylcyclobutyl)-3-[(2 R)-tetrahydrofuran-2-ylmethyl]-1,3,4-thiadiazol-2(3H)-ylidene]benzamide] | 38 nM | 1.6 nM | 
9 | COc1ccc(Cl)cc1C(=O)/N=c1\sc(C2(C(F)(F)F)CCC2)nn1C[C@H]1CCCO1 [Example 8, 5-chloro-2-methoxy-N-[(2Z)-3-[(2R)-tetrahydrofuran-2-ylmethyl]-5-[1-(trifluoromethyl)cyclobutyl]-1,3,4-thiadiazol-2(3H)-ylidene]benzamide] |  | 0.8 nM | 
10 | COc1ccc(Cl)cc1C(=O)/N=c1\sc(C(C)(C)C(F)(F)F)nn1C[C@H]1CCCO1 [Example 9, 5-chloro-2-methoxy-N-[(2Z)-3-[(2R)-tetrahydrofuran-2-ylmethyl]-5-(2,2,2-trifluoro-1,1-dimethylethyl)-1,3,4-thiadiazol-2(3H)-ylidene]benzamide] | 33 nM | 1.4 nM | 
11 | COc1ccc(Cl)cc1C(=O)/N=c1\ccc(C)cn1CC1CCCO1 (centres unmarked) [Example 10, 5-chloro-2-methoxy-N-[(2E)-5-methyl-1-(tetrahydrofuran-2-ylmethyl)pyridin-2(1 H)-ylidene]benzamide] |  |  | 360 nM
12 | COc1ccc(Cl)cc1C(=O)/N=c1\cc(C(C)(C)C)on1C[C@H]1CCCO1 [Example 11, N-[(3E)-5-tert-butyl-2-[(2R)-tetrahydrofuran-2-ylmethyl]isoxazol-3(2H)-ylidene]-5-chloro-2-methoxybenzamide] | 4.8 nM | 2.6 nM | 
13 | COc1ccc(Cl)cc1C(=O)/N=c1\oc(C(C)(C)C)cn1C[C@H]1CCCO1 [Example 13, N-[(2Z)-5-tert-butyl-3-[(2R)-tetrahydrofuran-2-ylmethyl]-1,3-oxazol-2(3H)-ylidene]-5-chloro-2-methoxybenzamide] | 4.8 nM | 1.9 nM | 
14 | CCOc1ccc(C(F)(F)F)cc1C(=O)/N=c1\cc(C(C)(C)C)n(C)n1C[C@H]1CCCO1 [Example 14, N-{(3E)-5-tert-butyl-1-methyl-2-[(2R)-tetrahydrofuran-2-ylmethyl]-1,2-dihydro-3H-pyrazol-3-ylidene}-2-ethoxy-5-(trifluoromethyl)benzamide] | 35 nM | 24 nM | 
15 | Cn1c(C(C)(C)C)c/c(=N\C(=O)c2cccc(S(F)(F)(F)(F)F)c2)n1C[C@H]1CCCO1 [Example 15, N-{(3E)-5-tert-butyl-1-methyl-2-[(2R)-tetrahydrofuran-2-ylmethyl]-1,2-dihydro-3H-pyrazol-3-ylidene}-3-(pentafluoro-lambda˜6˜sulfanyl)benzamide] | 2.8 nM | 1.2 nM | 
16 | Cn1c(C(C)(C)C)c/c(=N\C(=O)c2cc(C(F)(F)F)ccc2OC[C@H]2C[C@@H](O)C2)n1C[C@H]1CCCO1 [Example 16, N-{(3E)-5-tert-butyl-1-methyl-2-[(2R)-tetrahydrofuran-2-ylmethyl]-1,2-dihydro-3H-pyrazol-3-ylidene}-2-[(cis-3-hydroxycyclobutyl)methoxy]-5-(trifluoromethyl)benzamide] | 147 nM | 84 nM | 
17 | Cn1c(C(C)(C)C)c/c(=N\C(=O)c2cc(C(F)(F)F)ccc2OCC2CC(=O)C2)n1C[C@H]1CCCO1 [Example 17, N-{(3E)-5-tert-butyl-1-methyl-2-[(2R)-tetrahydrofuran-2-ylmethyl]-1,2-dihydro-3H-pyrazol-3-ylidene}-2-[(3-oxocyclobutyl)methoxy]-5-(trifluoromethyl)benzamide] |  | 58 nM | 230 nM
18 | CO[C@H]1C[C@@H](COc2ccc(C(F)(F)F)cc2C(=O)/N=c2\cc(C(C)(C)C)n(C)n2C[C@H]2CCCO2)C1 [Example 18] | 51 nM | 99 nM | 
19 | Cn1c(C(C)(C)C)c/c(=N\C(=O)c2cc(C(F)(F)F)ccc2OCC2CC(F)(F)C2)n1C[C@H]1CCCO1 [Example 19, N-{(3E)-5-tert-butyl-1-methyl-2-[(2R)-tetrahydrofuran-2-ylmethyl]-1,2-dihydro-3H-pyrazol-3-ylidene}-2-[(3,3-difluorocyclobutyl)methoxy]-5-(trifluoromethyl)benzamide] | 22 nM | 11 nM | 
20 | COC(C)(C)CCOc1ccc(C(F)(F)F)cc1C(=O)/N=c1\cc(C(C)(C)C)n(C)n1C[C@H]1CCCO1 [Example 20, N-{(3E)-5-tert-butyl-1-methyl-2-[(2R)-tetrahydrofuran-2-ylmethyl]-1,2-dihydro-3H-pyrazol-3-ylidene}-2-(3-methoxy-3-methylbutoxy)-5-(trifluoromethyl)benzamide] | 25 nM | 23 nM | 
